In patent US9227971B2, “Pyrazolo[1,5-a]pyrimidine compounds as mTOR inhibitors” (Merck Sharp & Dohme Corp., priority 2010, dated 2016):
Read-outs that look alike come from different tables or passages of the source.

Experiments:
[1] = test system: phosphorylated AKT Ser473 (pAKT S473), mTORC2 activity, PC3 cells; assay: mTOR target engagement assay, immunofluorescent cell-based, pAKT S473 readout (mTORC2 activity)
Method in brief: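 After blocking, cells were stained overnight at 4 °C with anti-pAKT S473 antibody, then a fluorescent secondary; inhibition was read as reduced fluorescence intensity.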

[2] = test system: phosphorylated 4E-BP1 Thr37/46 (p4E-BP1 Thr37/46), mTORC1 activity, PC3 cells; assay: mTOR target engagement assay, immunofluorescent cell-based, p4E-BP1 Thr37/46 readout (mTORC1 activity); details: read-out: p4E-BP1 Thr37/46 IC50
Method in brief: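 Seed PC3 cells overnight; treat with compound dilutions for ninety minutes at 37° C; fix with glyoxal and block; stain with anti-p4E-BP1 Thr37/46 overnight at 4° C, then fluorescent secondary; read fluorescence and fit IC50 against DMSO-only controls.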

[3] = target: human mTOR enzyme (Homo sapiens, UniProt P42345); assay: mTOR kinase assay (HTRF mTOR enzyme assay); assay type: biochemical; details: 5 μM ATP, 0.2 μM GST-S6K, one hour at 30° C.
Description: An HTRF mTOR enzyme assay was developed to assess the compounds' inhibitory activity. The mTOR assay buffer contained 10 mM Hepes (pH 7.4), 50 mM NaCl, 100 μg/ml BSA, 50 mM B-glycerophosphate, 10 mM MnCl2 and 0.5 mM DTT. […] 20 ng of human mTOR enzyme (<5% pure was preincubated with the compound for 10 minutes followed by the addition of 5 μM ATP and 0.2 μM GST-S6K (Zhang et al., Protein Expression and Purification 46, pp 414-420 (2006)). The reaction was incubated for one hour at 30° C. Anti phospho p70-S6K(Thr389) (˜1.7 ng/well, anti-phospho-p70S6K-cryptate (Pho-p70S6-Kin-K cat#64CUSKAY, from Cisbio)) and anti GST-XL665 (1:1 Ratio with the substrate GST-S6K, anti GST-XL665, cat#61 GSTXLB) Cisbio) were added after the reaction was stopped. The plates were read (PHERAstar, BMG) at least 2 hours after adding the anti phospho p70-S6K and the anti GST-XL665.
Dose-response curves were plotted from the inhibition data generated, each in duplicate, from 8 point serial dilutions of inhibitory compounds. Concentration of compound was plotted against the HTRF em665/em590 ratio signal. To generate IC50 values, the dose-response curves were fitted to a standard sigmoidal curve and IC50 values were derived by nonlinear regression analysis.

[4] = PC3 cells, compound treatment ninety minutes at 37° C.

human mTOR enzyme, sequence (P42345 1360-2549 limits assumed): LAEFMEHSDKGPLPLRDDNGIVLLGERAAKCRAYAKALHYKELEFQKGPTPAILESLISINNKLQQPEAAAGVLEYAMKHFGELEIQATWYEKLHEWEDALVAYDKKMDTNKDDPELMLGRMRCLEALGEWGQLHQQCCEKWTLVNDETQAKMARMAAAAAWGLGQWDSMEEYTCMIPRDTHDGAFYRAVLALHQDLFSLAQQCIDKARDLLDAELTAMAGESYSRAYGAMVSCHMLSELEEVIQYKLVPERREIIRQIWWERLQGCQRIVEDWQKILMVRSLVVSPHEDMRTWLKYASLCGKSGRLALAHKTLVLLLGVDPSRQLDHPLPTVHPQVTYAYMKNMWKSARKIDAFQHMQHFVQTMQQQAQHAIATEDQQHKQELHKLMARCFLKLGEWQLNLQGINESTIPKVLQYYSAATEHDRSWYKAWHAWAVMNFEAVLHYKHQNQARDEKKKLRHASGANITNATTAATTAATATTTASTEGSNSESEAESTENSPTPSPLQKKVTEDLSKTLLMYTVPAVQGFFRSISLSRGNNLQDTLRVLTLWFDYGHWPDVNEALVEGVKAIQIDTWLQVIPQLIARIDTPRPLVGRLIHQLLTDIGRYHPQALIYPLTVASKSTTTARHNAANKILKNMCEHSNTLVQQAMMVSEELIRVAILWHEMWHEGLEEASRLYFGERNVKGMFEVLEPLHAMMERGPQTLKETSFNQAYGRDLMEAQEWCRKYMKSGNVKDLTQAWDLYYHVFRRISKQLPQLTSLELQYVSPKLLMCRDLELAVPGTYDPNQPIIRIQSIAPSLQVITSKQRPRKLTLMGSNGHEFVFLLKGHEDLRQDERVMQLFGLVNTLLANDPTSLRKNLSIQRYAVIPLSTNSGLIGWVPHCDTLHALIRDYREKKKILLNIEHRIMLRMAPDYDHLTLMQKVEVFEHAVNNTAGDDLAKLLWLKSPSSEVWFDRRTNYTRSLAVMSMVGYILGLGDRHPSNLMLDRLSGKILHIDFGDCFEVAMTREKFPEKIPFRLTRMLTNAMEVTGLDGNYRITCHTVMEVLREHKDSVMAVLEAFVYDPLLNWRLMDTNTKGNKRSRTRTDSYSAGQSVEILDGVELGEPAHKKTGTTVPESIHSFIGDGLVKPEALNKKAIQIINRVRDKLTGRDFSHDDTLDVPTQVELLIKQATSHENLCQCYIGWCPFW

`CCOC(=O)Nc1ccc(-c2cnn3c(N)c(C(C)=O)c([C@@H]4C[C@H]5CC[C@@H](C4)N5C(=O)c4ncn[nH]4)nc23)cn1` [Compound 8.78, ethyl 5-(5-((1R,3s,5S)-8-(1H-1,2,4-triazole-5-carbonyl)-8-azabicyclo[3.2.1]octan-3-yl)-6-acetyl-7-aminopyrazolo[1,5-a]pyrimidin-3-yl)pyridin-2-ylcarbamate] showed an IC50 ([1]; Homo sapiens, PC-3, PC3 cells) of 1 to 100 nM and an IC50 ([2]; Homo sapiens, PC-3, PC3 cells) of 1 to 100 nM.

With `CNC(=O)Nc1ccc(-c2cnn3c(N)cc([C@@H]4C[C@H]5CC[C@@H](C4)N5C(=O)c4nnc[nH]4)nc23)cc1` [Compound 8.80, 1-(4-(5-((1R,3s,5S)-8-(4H-1,2,4-triazole-3-carbonyl)-8-azabicyclo[3.2.1]octan-3-yl)-7-aminopyrazolo[1,5-a]pyrimidin-3-yl)phenyl)-3-methylurea] the IC50 ([1]; Homo sapiens, PC-3, PC3 cells) was greater than 10000 nM and the IC50 ([2]; Homo sapiens, PC-3, PC3 cells) was greater than 10000 nM.

Compound `CNC(=O)Nc1ccc(-c2cnn3c(N)cc([C@@H]4C[C@H]5CC[C@@H](C4)N5C(=O)CO)nc23)cc1` [Compound 8.82, 1-(4-(7-amino-5-((1R,3s,5S)-8-(2-hydroxyacetyl)-8-azabicyclo[3.2.1]octan-3-yl)pyrazolo[1,5-a]pyrimidin-3-yl)phenyl)-3-methylurea] has an IC50 ([1]; Homo sapiens, PC-3, PC3 cells) greater than 10000 nM and an IC50 ([2]; Homo sapiens, PC-3, PC3 cells) greater than 10000 nM.

Work on `CNC(=O)Nc1ccc(-c2cnn3c(N)c(C(C)=O)c([C@@H]4C[C@H]5CC[C@@H](C4)N5C(=O)c4nnc[nH]4)nc23)cc1` [Compound 8.85, 1-(4-(5-((1R,3s,5S)-8-(4H-1,2,4-triazole-3-carbonyl)-8-azabicyclo[3.2.1]octan-3-yl)-6-acetyl-7-aminopyrazolo[1,5-a]pyrimidin-3-yl)phenyl)-3-methylurea] yielded an IC50 ([1]; Homo sapiens, PC-3, PC3 cells) of 1 to 100 nM and an IC50 ([2]; Homo sapiens, PC-3, PC3 cells) of 100 to 1000 nM.

`N#C/N=C(\N)N1[C@@H]2CC[C@H]1C[C@H](c1cc(N)n3ncc(-c4ccc(-c5ccccc5)nc4)c3n1)C2` [Compound 8.86] showed an IC50 ([1]; Homo sapiens, PC-3, PC3 cells) of 1000 to 10000 nM and an IC50 ([2]; Homo sapiens, PC-3, PC3 cells) of 1000 to 10000 nM.

`CS(=O)(=O)c1c([C@@H]2C[C@H]3CC[C@@H](C2)N3/C(N)=N/C#N)nc2c(-c3ccc(-c4ccccc4)nc3)cnn2c1N` [Compound 8.87, (1R,3s,5S,E)-3-(7-amino-6-(methylsulfonyl)-3-(6-phenylpyridin-3-yl)pyrazolo[1,5-a]pyrimidin-5-yl)-N′-cyano-8-azabicyclo[3.2.1]octane-8-carboximidamide] was tested, and the IC50 ([1]; Homo sapiens, PC-3, PC3 cells) was 1 to 100 nM and the IC50 ([2]; Homo sapiens, PC-3, PC3 cells) was 100 to 1000 nM.

For `N#Cc1ncc(-c2cnn3c(N)cc([C@@H]4C[C@H]5CC[C@@H](C4)N5C(=O)c4nnc[nH]4)nc23)cn1` [Compound 8.95, 5-(5-((1R,3s,5S)-8-(4H-1,2,4-triazole-3-carbonyl)-8-azabicyclo[3.2.1]octan-3-yl)-7-aminopyrazolo[1,5-a]pyrimidin-3-yl)pyrimidine-2-carbonitrile], the IC50 ([1]; Homo sapiens, PC-3, PC3 cells) was greater than 10000 nM and the IC50 ([2]; Homo sapiens, PC-3, PC3 cells) was greater than 10000 nM.

In the case of `N#Cc1ncc(-c2cnn3c(N)c(C4CC4)c([C@@H]4C[C@H]5CC[C@@H](C4)N5C(=O)c4nnc[nH]4)nc23)cn1` [Compound 8.96, 5-(5-((1R,3s,5S)-8-(4H-1,2,4-triazole-3-carbonyl)-8-azabicyclo[3.2.1]octan-3-yl)-7-amino-6-cyclopropylpyrazolo[1,5-a]pyrimidin-3-yl)pyrimidine-2-carbonitrile], the IC50 ([1]; Homo sapiens, PC-3, PC3 cells) is reported as 1000 to 10000 nM and the IC50 ([2]; Homo sapiens, PC-3, PC3 cells) is reported as 1000 to 10000 nM.

For `Nc1c(C2CC2)c(C2CC3CCC(C2)N3C(=O)c2nnc(N3CCNCC3)[nH]2)nc2c(-c3ccc(-c4ccccc4)nc3)cnn12` [Compound 8.98, ((1R,3s,5S)-3-(7-amino-6-cyclopropyl-3-(6-phenylpyridin-3-yl)pyrazolo[1,5-a]pyrimidin-5-yl)-8-azabicyclo[3.2.1]octan-8-yl)(5-(piperazin-1-yl)-4H-1,2,4-triazol-3-yl)methanone], the IC50 ([1]; Homo sapiens, PC-3, PC3 cells) was 1000 to 10000 nM and the IC50 ([2]; Homo sapiens, PC-3, PC3 cells) was 1000 to 10000 nM.

Work on `COCCOc1nnc(C(=O)N2C3CCC2CC(c2nc4c(-c5ccc(-c6ccccc6)nc5)cnn4c(N)c2C2CC2)C3)[nH]1` [Compound 8.100, ((1R,3s,5S)-3-(7-amino-6-cyclopropyl-3-(6-phenylpyridin-3-yl)pyrazolo[1,5-a]pyrimidin-5-yl)-8-azabicyclo[3.2.1]octan-8-yl)(5-(2-methoxyethoxy)-4H-1,2,4-triazol-3-yl)methanone] yielded an IC50 ([1]; Homo sapiens, PC-3, PC3 cells) of 100 to 1000 nM and an IC50 ([2]; Homo sapiens, PC-3, PC3 cells) of 100 to 1000 nM.

Compound `CN1CCN(c2nnc(C(=O)N3C4CCC3CC(c3nc5c(-c6ccc(-c7ccccc7)nc6)cnn5c(N)c3C3CC3)C4)[nH]2)CC1` [Compound 8.102, ((1R,3s,5S)-3-(7-amino-6-cyclopropyl-3-(6-phenylpyridin-3-yl)pyrazolo[1,5-a]pyrimidin-5-yl)-8-azabicyclo[3.2.1]octan-8-yl)(5-(4-methylpiperazin-1-yl)-4H-1,2,4-triazol-3-yl)methanone] has an IC50 ([1]; Homo sapiens, PC-3, PC3 cells) of 1000 to 10000 nM and an IC50 ([2]; Homo sapiens, PC-3, PC3 cells) of 1000 to 10000 nM.

`COc1nnc(C(=O)N2C3CCC2CC(c2nc4c(-c5ccc(-c6ccccc6)nc5)cnn4c(N)c2C2CC2)C3)[nH]1` [Compound 8.103, ((1R,3s,5S)-3-(7-amino-6-cyclopropyl-3-(6-phenylpyridin-3-yl)pyrazolo[1,5-a]pyrimidin-5-yl)-8-azabicyclo[3.2.1]octan-8-yl)(5-methoxy-4H-1,2,4-triazol-3-yl)methanone] showed an IC50 ([1]; Homo sapiens, PC-3, PC3 cells) of 100 to 1000 nM and an IC50 ([2]; Homo sapiens, PC-3, PC3 cells) of 100 to 1000 nM.

`Nc1nnc(C(=O)N2C3CCC2CC(c2nc4c(-c5ccc(-c6ccccc6)nc5)cnn4c(N)c2C2CC2)C3)[nH]1` [Compound 8.104, (5-amino-4H-1,2,4-triazol-3-yl)((1R,3s,5S)-3-(7-amino-6-cyclopropyl-3-(6-phenylpyridin-3-yl)pyrazolo[1,5-a]pyrimidin-5-yl)-8-azabicyclo[3.2.1]octan-8-yl)methanone] gave an IC50 ([1]; Homo sapiens, PC-3, PC3 cells) of 1 to 100 nM and an IC50 ([2]; Homo sapiens, PC-3, PC3 cells) of 1 to 100 nM.

`Nc1c(C2CC2)c(C2CC3CCC(C2)N3C(=O)c2nnc(N3CCOCC3)[nH]2)nc2c(-c3ccc(-c4ccccc4)nc3)cnn12` [Compound 8.105, ((1R,3s,5S)-3-(7-amino-6-cyclopropyl-3-(6-phenylpyridin-3-yl)pyrazolo[1,5-a]pyrimidin-5-yl)-8-azabicyclo[3.2.1]octan-8-yl)(5-morpholino-4H-1,2,4-triazol-3-yl)methanone] gave an IC50 ([1]; Homo sapiens, PC-3, PC3 cells) of 1000 to 10000 nM and an IC50 ([2]; Homo sapiens, PC-3, PC3 cells) of 1000 to 10000 nM.

For `Nc1c(C2CC2)c(C2CC3CCC(C2)N3C(=O)c2nnc(O)[nH]2)nc2c(-c3ccc(-c4ccccc4)nc3)cnn12` [Compound 8.106, ((1R,3s,5S)-3-(7-amino-6-cyclopropyl-3-(6-phenylpyridin-3-yl)pyrazolo[1,5-a]pyrimidin-5-yl)-8-azabicyclo[3.2.1]octan-8-yl)(5-hydroxy-4H-1,2,4-triazol-3-yl)methanone], the IC50 ([1]; Homo sapiens, PC-3, PC3 cells) was 1 to 100 nM and the IC50 ([2]; Homo sapiens, PC-3, PC3 cells) was 1 to 100 nM.

`CC(=O)c1c(N2CC3CCC2CN3C(=O)[C@@H](C)O)nc2c(-c3ccc(-c4ccccc4)nc3)cnn2c1N` (some centres unmarked) [Compound 47] gave an IC50 [3] of 10 to 25 nM.

Compound `CC(=O)c1c(N2CC3CCC2CN3C(=O)c2nnc[nH]2)nc2c(-c3ccc(-c4ccccc4)nc3)cnn2c1N` (centres unmarked) [Compound 48] has an IC50 [3] of 1 to 10 nM.

`CC(=O)c1c(N2C3CCC2CN(C(=O)CO)C3)nc2c(-c3ccc(-c4ccccc4)nc3)cnn2c1N` [Compound 49] showed an IC50 [3] of 1 to 10 nM.

`CC(=O)c1c(N2C3CCC2CN(C(=O)[C@@H](C)O)C3)nc2c(-c3ccc(-c4ccccc4)nc3)cnn2c1N` [Compound 50] showed an IC50 [3] of 10 to 25 nM.

Work on `Nc1c(F)c([C@@H]2C[C@H]3CC[C@@H](C2)N3C(=O)CO)nc2c(-c3ccc(-c4ncc[nH]4)nc3)cnn12` [Example 8A, 1-[(3-Exo)-3-{7-amino-6-fluoro-3-[6-(1H-imidazol-2-yl)pyridin-3-yl]pyrazolo[1,5-a]pyrimidin-5-yl}-8-azabicyclo[3.2.1]oct-8-yl]-2-hydroxyethanone] yielded an IC50 [3] of 2 nM.

“(1R,3s,5S)-2-methoxyethyl 3-(6-acetyl-7-amino-3-(6-(1-methyl-1H-pyrazol-3-yl)pyridin-3-yl)pyrazolo[1,5-a]pyrimidin-5-yl)-8-azabicyclo[3.2.1]octane-8-carboxylate [Compound 1.1.109]” showed an IC50 [1, 4] of 1000 to 10000 nM and an IC50 [2, 4] of 1000 to 10000 nM.

In the case of “((1R,3s,5S)-3-(7-amino-3-(6-(1-methyl-(D3)-1H-pyrazol-3-yl)pyridin-3-yl)-6-(methylsulfonyl)pyrazolo[1,5-a]pyrimidin-5-yl)-8-azabicyclo[3.2.1]octan-8-yl)(4H-1,2,4-triazol-3-yl)methanone [Compound 3.70]”, the IC50 ([1]; Table 3-1, PC3 cells) is reported as 100 to 1000 nM and the IC50 ([2]; Table 3-1, PC3 cells) is reported as 100 to 1000 nM.

In the case of “((1R,3s,5S)-3-(7-amino-6-(methylsulfonyl)-3-(6-(5-methylthiazol-2-yl)pyridin-3-yl)pyrazolo[1,5-a]pyrimidin-5-yl)-8-azabicyclo[3.2.1]octan-8-yl)(5-methyl-4H-1,2,4-triazol-3-yl)methanone [Compound 3.183]”, the IC50 ([1]; Table 3-1, PC3 cells) is reported as 100 to 1000 nM and the IC50 ([2]; Table 3-1, PC3 cells) is reported as 100 to 1000 nM.
